These results are taken from ChEMBL document CHEMBL5537110, “SIRT1-dependent mitochondrial biogenesis supports therapeutic effects of 4-butyl-polyhydroxybenzophenone compounds against NAFLD” (Eur J Med Chem, 2023).

Test [1] has as its system HepG2. Briefly: Inhibition of liver injury in 40% FBS-induced steatosis human HepG2 cells model assessed as decrease in ALT level at 0.2 to 5 uM incubated with compound for 24 hrs followed by replacement with steatosis inducing DMEM with 40% FBS medium. The test is classed as functional, cell-based. As to conditions: dose 0.2-5 µM.
Test [2] concerns the target T1, NAD-dependent protein deacetylase sirtuin-1 (Homo sapiens) (UniProt Q96EB6).
T1 sequence (whole entry): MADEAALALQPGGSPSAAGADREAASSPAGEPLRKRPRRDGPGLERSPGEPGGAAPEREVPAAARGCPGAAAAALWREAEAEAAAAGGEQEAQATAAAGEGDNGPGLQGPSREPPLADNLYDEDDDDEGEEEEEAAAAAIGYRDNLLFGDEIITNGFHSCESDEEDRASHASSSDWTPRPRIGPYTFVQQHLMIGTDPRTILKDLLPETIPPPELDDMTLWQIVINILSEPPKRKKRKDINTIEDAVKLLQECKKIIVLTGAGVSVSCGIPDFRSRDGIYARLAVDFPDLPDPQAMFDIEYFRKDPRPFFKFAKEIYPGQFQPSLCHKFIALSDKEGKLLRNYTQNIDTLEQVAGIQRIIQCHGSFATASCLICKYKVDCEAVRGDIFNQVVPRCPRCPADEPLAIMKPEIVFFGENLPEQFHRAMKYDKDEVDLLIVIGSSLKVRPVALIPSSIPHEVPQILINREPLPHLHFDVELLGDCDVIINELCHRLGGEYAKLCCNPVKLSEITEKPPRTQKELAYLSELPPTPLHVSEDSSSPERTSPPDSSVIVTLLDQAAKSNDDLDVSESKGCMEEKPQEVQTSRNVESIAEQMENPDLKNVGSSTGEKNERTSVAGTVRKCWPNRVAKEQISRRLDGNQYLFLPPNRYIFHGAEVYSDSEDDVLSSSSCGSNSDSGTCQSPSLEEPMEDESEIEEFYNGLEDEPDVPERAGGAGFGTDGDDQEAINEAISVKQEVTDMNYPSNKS
Briefly: Binding affinity to SIRT1 in human HepG2 cells assessed as increase in thermal stability of protein pretreated with compound for 30 mins followed by incubation at 50 degC for 3 mins by CETSA-WB analysis. It counts as cell-based. As to conditions: filed as activator, dose 80-320 µM, time 33.0 min.

Test [3] relates to HepG2. Briefly: Induction of mitochondrial biogenesis in human HepG2 cells assessed as TFAM mRNA expression incubated for 24 hrs in presence of SIRT1 inhibitor, EX527 by qRT-PCR analysis. It counts as functional, cell-based.
Test [4] relates to HepG2. Description: Inhibition of oxidative stress in 40% FBS-induced steatosis human HepG2 cells model assessed as reduction in mitochondrial ROS production incubated in steatosis inducing DMEM with 40% FBS medium for 24 hrs followed by compound treatment by MitoSOX Red dye based fluorescence microscopy. It counts as functional, cell-based. As to conditions: Mitochondria, dose 0.2-5 µM.

Test [5] concerns HepG2. Briefly: Induction of mitochondrial biogenesis in human HepG2 cells assessed as NRF1 protein expression incubated for 24 hrs in presence of SIRT1 inhibitor, EX527 by western blot analysis. It counts as functional, cell-based.
Test [6] concerns HepG2. Description: Inhibition of liver injury in 40% FBS-induced steatosis human HepG2 cells model assessed as decrease in GDH level at 0.2 to 5 uM incubated in steatosis inducing DMEM with 40% FBS medium for 24 hrs followed by compound treatment. It counts as functional, cell-based. The conditions noted are these: dose 0.2-5 µM.
Test [7] relates to HepG2. Briefly: Recovery of mitochondrial biogenesis in 40% FBS-induced steatosis human HepG2 cells model assessed as increase in mitochondrial COX1 mRNA expression incubated for 24 hrs by qRT-PCR analysis. The test is classed as functional, cell-based. The conditions noted are these: dose 0.2-5 µM.
Test [8] relates to HepG2. Description: Inhibition of mitochondrial membrane potential dissipation in 40% FBS-induced steatosis human HepG2 cells model assessed as increase in mitochondrial membrane potential incubated with compound for 24 hrs followed by replacement with steatosis inducing DMEM with 40% FBS medium by JC-1 staining based fluorescence microscopy. It counts as functional, cell-based. As to conditions: Mitochondria, dose 0.2-5 µM.

Test [9] has as its system HepG2. Description: Induction of mitochondrial biogenesis in human HepG2 cells assessed as NRF1 mRNA expression incubated for 24 hrs in presence of SIRT1 inhibitor, EX527 by qRT-PCR analysis. The test is classed as functional, cell-based.
The subject of test [10] is HepG2. Briefly: Recovery of mitochondrial biogenesis in 40% FBS-induced steatosis human HepG2 cells model assessed as increase in mitochondrial ND6 protein expression incubated for 24 hrs by western blot analysis. The test is classed as functional, cell-based. The conditions noted are these: dose 0.2-5 µM.
In test [11] the test system is Rattus norvegicus. Description: Hepatoprotective activity against high fat diet-fed NAFLD Sprague-Dawley rat model assessed as decrease in serum triglyceride content administered intragastrically via gavage for 4 weeks. The test is classed as functional, organism-based. The conditions noted are these: dose 12.3-61.4 mg/kg, route ig.
The subject of test [12] is HepG2. Description: Inhibition of liver injury in 40% FBS-induced steatosis human HepG2 cells model assessed as decrease in AST level at 0.2 to 5 uM incubated in steatosis inducing DMEM with 40% FBS medium for 24 hrs followed by compound treatment. It counts as functional, cell-based. As to conditions: dose 0.2-5 µM.
Test [13] relates to HepG2. Description: Recovery of mitochondrial biogenesis in 40% FBS-induced steatosis human HepG2 cells model assessed as increase in PGC1alpha mRNA expression incubated for 24 hrs by qRT-PCR analysis. It counts as functional, cell-based. The conditions noted are these: dose 0.2-5 µM.
For test [14], the system named is HepG2. Description: Recovery of mitochondrial biogenesis in 40% FBS-induced steatosis human HepG2 cells model assessed as increase in SIRT1 protein expression incubated for 24 hrs by western blot analysis. It counts as functional, cell-based. The conditions noted are these: dose 0.2-5 µM.
The test system of test [15] is HepG2. Description: Recovery of mitochondrial activity in 40% FBS-induced steatosis human HepG2 cells model assessed as increase in number of mitochondria incubated in steatosis inducing DMEM with 40% FBS medium for 24 hrs followed by compound treatment by MitoTracker Green based fluorescence analysis. The test is classed as functional, cell-based. As to conditions: dose 0.2-5 µM.

For test [16], the system named is HepG2. Description: Recovery of energy production in 40% FBS-induced steatosis human HepG2 cells model assessed as upregulation of mitochondrial ATP production incubated in steatosis inducing DMEM with 40% FBS medium for 24 hrs followed by compound treatment by luciferase based assay. It counts as functional, cell-based. The conditions noted are these: Mitochondria, dose 0.2-5 µM.

Calls of active or inactive are those of the source. The calls are words filed in the database; no cut-off is given here.

As for `CC(C)(C)c1ccc(C(=O)c2ccc(O)c(O)c2)cc1`, the inhibition result in test [1], in [6] and in test [12] was “Active” throughout. The Activity result in [2], in test [7], in test [10], in test [11], in test [13] and in test [14] was “Dose-Dependent Effect” throughout. Moreover, the Activity result in test [15] and in test [16] was “Dose-Dependent Effect” in each case. The result in [3], in [5] and in [9] was inactive. Also, the inhibition result in [4] and in test [8] was “Dose-Dependent Effect” each time.
